Test [1] has as its system Diamond Back Moth (Plutella xylostella). Put plainly: Activity against diamond back moth, cabbage leaf disk dip. Format: in vivo. The note with it: foliar. As for the experimental part:
The active compounds were formulated in 50:50 acetone:water and 0.1% (vol/vol) Alkamuls EL 620 surfactant. A 6 cm leaf disk of cabbage leaves was dipped in the test solution for 3 seconds and allowed to air dry in a Petri plate lined with moist filter paper. The leaf disk was inoculated with 10 third instar larvae and kept at 25-27° C. and 50-60% humidity for 3 days. Mortality was assessed after 72 h of treatment.

Test [2] has as its system Southern Armyworm (Spodoptera eridania), 2nd Instar Larvae. Kind of test: whole plant or invertebrate. Type of test: in vivo. The note with it: in Phaseolus lunatus, foliar, 120 h. As for the experimental part: The active compounds were formulated for testing the activity against insects and arachnids as a 10.000 ppm solution in a mixture of 35% acetone and water, which was diluted with water, if needed.
A Sieva lima bean leaf was dipped in the test solution and allowed to dry. The leaf was then placed in a petri dish containing a filter paper on the bottom and ten 2nd instar caterpillars. At 5 days, observations are made of mortality and reduced feeding.

Test [3] relates to Tobacco Budworm (Heliothis virescens). Kind of test: whole plant or invertebrate. As to conditions: 144 h.
In test [4] the test system is Vetch Aphid (Megoura viciae). Kind of test: Activity against vetch aphid, bean leaf disks. Format: in vivo. As to conditions: foliar, 144 h. The method, then:
Bean leaf disks were placed into microtiterplates filled with 0.8% agar-agar and 2.5 ppm OPUS™. The leaf disks were sprayed with 2.5 μl of the test solution and 5 to 8 adult aphids were placed into the microtiterplates which were then closed and kept at 22-24° C. and 35-45% under fluorescent light for 6 days. Mortality was assessed on the basis of vital, reproduced aphids. Tests were replicated 2 times.

The subject of test [5] is Cotton Aphid (Aphis gossypii). Kind of test: Activity against cotton aphid, cotton cotyledon dip. Type of test: in vivo. The note with it: 120 h, cotyledons dipped, after 5 days. An excerpt:
(§1) The active compounds were formulated in 50:50 acetone:water and 100 ppm Kinetic™ surfactant.
Cotton plants at the cotyledon stage (one plant per pot) were infested by placing a heavily infested leaf from the main colony on top of each cotyledon. The aphids were allowed to transfer to the host plant overnight, and the leaf used to transfer the aphids was removed. The cotyledons were dipped in the test solution and allowed to dry. After 5 days, mortality counts were made.

The subject of test [6] is Silverleaf Whitefly (Bemisia argentifolii). Put plainly: Activity against silverleaf whitefly, cotton cotyledon dip. Type of test: in vivo. The note with it: 72 h, cotyledons dipped, adults, 3 days after treatment. As for the experimental part:
as §1
Selected cotton plants were grown to the cotyledon state (one plant per pot). The cotyledons were dipped into the test solution to provide complete coverage of the foliage and placed in a well-vented area to dry. Each pot with treated seedling was placed in a plastic cup and 10 to 12 whitefly adults (approximately 3-5 day old) were introduced. The insects were collected using an aspirator and an 0.6 cm, non-toxic Tygon™ tubing (R-3603) connected to a barrier pipette tip. The tip, containing the collected insects, was then gently inserted into the soil containing the treated plant, allowing insects to crawl out of the tip to reach the foliage for feeding. The cups were covered with a reusable screened lid (150 micron mesh polyester screen PeCap from Tetko Inc). Test plants were maintained in the holding room at about 25° C. and 20-40% relative humidity for 3 days avoiding direct exposure to the fluorescent light (24 hour photoperiod) to prevent trapping of heat inside the cup. Mortality was assessed 3 days after treatment of the plants.

In test [7] the test system is Boll Weevil (Anthonomus grandis). Put plainly: Activity against boll weevil, eggs in microtiterplates. Format: in vivo. As to conditions: eggs sprayed with 20 μl test solution, 3 to 5 days. The method, then: 10 to 15 eggs were placed into microtiterplates filled with 2% agar-agar in water and 300 ppm formaline. […] Mortality was assessed on the basis of the remaining unhatched eggs or larvae on the agar surface and/or quantity and depth of the digging channels caused by the hatched larvae. Tests were replicated 2 times.

Test [8] concerns Mediterranean Fruitfly (Ceratitis capitata). Put plainly: Activity against Mediterranean fruitfly, eggs in microtiterplates. Format: in vivo. The note with it: 144 h, eggs sprayed with 5 μl test solution, 6 days. As for the experimental part:
50 to 80 eggs were placed into microtiterplates filled with 0.5% agar-agar and 14% diet in water. […] Mortality was assessed on the basis of the agility of the hatched larvae. Tests were replicated 2 times.

The mark [9] stands for this setting: 2500 ppm, leaf disks sprayed with 2.5 μl, 6 days, compared to 0% mortality of untreated controls, read-out: mortality.
Where [10] appears, read: 300 ppm, leaf dipped, at 5 days, read-out: mortality.
The mark [11] stands for this setting: 300 ppm, leaf disk dipped, third instar larvae, after 72 h, read-out: mortality.

Where two headings read alike, the source gives them in different places.

This note sets out measurements from US20170015649A1, “N-Thio-anthranilamid compounds and their use as pesticides” (BASF SE, priority 2005, published 2017).

As a reminder, the mortality is the percentage killed.

As to `CCN(C)S(=O)(=O)NC(=O)c1cc(Cl)cc(C)c1NC(=O)c1cc(Br)nn1-c1ncccc1Cl` [I.1-7], the mortality at 300 ppm in test [1] (72 h) and in test [2] was greater than 75% in each case.

Regarding `Cc1cc(Cl)cc(C(=O)NS(=O)(=O)N(C)C)c1NC(=O)c1cc(Br)nn1-c1ncccc1Cl` [I.1-9], the mortality at 300 ppm in test [1] (72 h) and in test [2] was greater than 75% in each case.

In the case of `CCN(C)S(=O)(=O)NC(=O)c1cccc(C)c1NC(=O)c1cc(Br)nn1-c1ncccc1Cl` [I.1-27], the mortality at 300 ppm in test [1] (72 h) and in test [2] was greater than 75% throughout.

On to `Cc1cccc(C(=O)NS(=O)(=O)N(C)C)c1NC(=O)c1cc(Br)nn1-c1ncccc1Cl` [I.1-30], for which, in test [2], the mortality at 300 ppm was greater than 75%.

For the molecule `CCN(C)S(=O)(=O)NC(=O)c1cc(Cl)cc(C)c1NC(=O)c1cc(C(F)(F)F)nn1-c1ncccc1Cl` [I.1-45], the mortality at 300 ppm in test [1] (72 h) and in test [2] was greater than 75% in each case.

For `Cc1cc(Cl)cc(C(=O)NS(=O)(=O)N(C)C)c1NC(=O)c1cc(C(F)(F)F)nn1-c1ncccc1Cl` [I.1-47], the mortality at 300 ppm in test [1] (72 h) and in test [2] was greater than 75% in each case.

For the molecule `CCN(CC)S(=O)(=O)NC(=O)c1cccc(C)c1NC(=O)c1cc(C(F)(F)F)nn1-c1ncccc1Cl` [I.1-53], the mortality at 2500 ppm in test [3] and in test [4] was greater than 75% throughout. This molecule also gave a mortality at 300 ppm in test [2] greater than 75%.

On to `CCN(C)S(=O)(=O)NC(=O)c1cccc(C)c1NC(=O)c1cc(C(F)(F)F)nn1-c1ncccc1Cl` [I.1-61], for which the mortality at 300 ppm in test [1] (72 h) and in test [2] was greater than 75% in each case.

In the case of `CCS(CC)=NC(=O)c1cc(Cl)cc(C)c1NC(=O)c1cc(Br)nn1-c1ncccc1Cl` [I.3-3], the mortality at 2500 ppm in test [3], in test [4] (setting [9]) and in test [7] was greater than 75% each time. Moreover, the results for the mortality at 300 ppm in test [5], in test [6] and in test [2] (setting [10]) were greater than 50%, greater than 90% and greater than 75%, respectively.

On to `Cc1cc(Cl)cc(C(=O)N=S(C)C)c1NC(=O)c1cc(C(F)(F)F)nn1-c1ncccc1Cl` [I.3-8], for which the mortality at 2500 ppm in test [3], in test [4] (setting [9]), in test [8] and in test [7] was greater than 75% in each case. For the same molecule, the mortality at 300 ppm in test [5] was greater than 50%; in test [1] (setting [11]), greater than 75%; in test [6] it was greater than 90%; in test [2] (setting [10]), greater than 75%.

Consider `Cc1cc(I)cc(C(=O)N=S(C)C)c1NC(=O)c1cc(Br)nn1-c1ncccc1Cl` [I.3-22], for which the mortality at 2500 ppm in test [3], in test [4] (setting [9]), in test [8] and in test [7] was greater than 75% throughout. Besides, the mortality at 300 ppm in test [5] is greater than 50%; in test [1] (setting [11]), greater than 75%; in test [6], greater than 90%; in test [2] (setting [10]) it was greater than 75%.

Regarding `Cc1cc(I)cc(C(=O)N=S(C)C)c1NC(=O)c1cc(C(F)(F)F)nn1-c1ncccc1Cl` [I.3-23], the mortality at 2500 ppm in test [3], in test [4] (setting [9]), in test [8] and in test [7] was greater than 75% each time. The mortality at 300 ppm in test [5] was greater than 50%; in test [1] (setting [11]), greater than 75%; in test [6], greater than 90%; in test [2] (setting [10]), greater than 75%.

Turning to `Cc1cccc(C(=O)N=S(C)C)c1NC(=O)c1cc(C(F)(F)F)nn1-c1ncccc1Cl` [I.3-24], the mortality at 2500 ppm in test [3], in test [4] (setting [9]), in test [8] and in test [7] was greater than 75% each time. For the same molecule, the mortality at 300 ppm was greater than 50% in test [5], greater than 75% in test [1] (setting [11]) and greater than 75% in test [2] (setting [10]).

For `CCS(C)=NC(=O)c1cc(Cl)cc(C)c1NC(=O)c1cc(Br)nn1-c1ncccc1Cl` (stereo not drawn) [I.3-25], the mortality at 2500 ppm in test [3], in test [4] (setting [9]), in test [8] and in test [7] was greater than 75% throughout. In addition, the mortality at 300 ppm was greater than 50% in test [5], greater than 75% in test [1] (setting [11]), greater than 90% in test [6] and greater than 75% in test [2] (setting [10]).

Take `CCS(C)=NC(=O)c1cccc(C)c1NC(=O)c1cc(Br)nn1-c1ncccc1Cl` (stereo not drawn) [I.3-26]: the mortality at 2500 ppm in test [3], in test [4] (setting [9]), in test [8] and in test [7] was greater than 75% each time. Also, the mortality at 300 ppm in test [5] is greater than 50%; in test [1] (setting [11]) it was greater than 75%; in test [6] it was greater than 90%; in test [2] (setting [10]), greater than 75%.

Consider `CCS(C)=NC(=O)c1cc(I)cc(C)c1NC(=O)c1cc(Br)nn1-c1ncccc1Cl` (stereo not drawn) [I.3-27], for which the mortality at 2500 ppm in test [3], in test [4] (setting [9]), in test [8] and in test [7] was greater than 75% in each case. In addition, the mortality at 300 ppm is greater than 50% in test [5], greater than 75% in test [1] (setting [11]), greater than 90% in test [6] and greater than 75% in test [2] (setting [10]).

Regarding `CCS(C)=NC(=O)c1cc(Cl)cc(C)c1NC(=O)c1cc(C(F)(F)F)nn1-c1ncccc1Cl` (stereo not drawn) [I.3-28], the mortality at 2500 ppm in test [3], in test [4] (setting [9]), in test [8] and in test [7] was greater than 75% each time. In addition, the mortality at 300 ppm in test [5] was greater than 50%; in test [1] (setting [11]), greater than 75%; in test [6] it was greater than 90%; in test [2] (setting [10]) it was greater than 75%.

Regarding `CCS(C)=NC(=O)c1cccc(C)c1NC(=O)c1cc(C(F)(F)F)nn1-c1ncccc1Cl` (stereo not drawn) [I.3-29], the mortality at 2500 ppm in test [3], in test [4] (setting [9]), in test [8] and in test [7] was greater than 75% throughout. In addition, the mortality at 300 ppm in test [5] was greater than 50%; in test [1] (setting [11]) it was greater than 75%; in test [2] (setting [10]), greater than 75%.

As to `Cc1cc(C#N)cc(C(=O)N=S(C)C)c1NC(=O)c1cc(C(F)(F)F)nn1-c1ncccc1Cl` [I.3-55], the mortality at 2500 ppm in test [3], in test [4] (setting [9]), in test [8] and in test [7] was greater than 75% in each case. In addition, in test [1] (setting [11]), the mortality at 300 ppm is greater than 75%.

`Cc1cc(C#N)cc(C(=O)N=S(C)C)c1NC(=O)c1cc(Br)nn1-c1ncccc1Cl` [I.3-60]: in test [1] (setting [11]), the mortality at 300 ppm was greater than 75%.

For the molecule `CCS(C)=NC(=O)c1cc(C#N)cc(C)c1NC(=O)c1cc(Br)nn1-c1ncccc1Cl` (stereo not drawn) [I.3-61], in test [1] (setting [11]), the mortality at 300 ppm was greater than 75%.

As to `Cc1cc(Cl)cc(C(=O)N=S2(=O)CCCCC2)c1CC(=O)c1cc(Br)nn1-c1ccccc1Cl` [I.4-22, 2-{2-[5-Bromo-2-(2-chloro-phenyl)-2H-pyrazol-3-yl]-2-oxo-ethyl}-5-chloro-3-methyl-N-(1-oxo-hexahydro-1lambda*6*-thiopyran-1-ylidene)-benzamide], the mortality at 2500 ppm in test [3], in test [4] (setting [9]), in test [8] and in test [7] was greater than 75% each time. For the same molecule, the mortality at 300 ppm in test [1] (setting [11]) and in test [2] (setting [10]) was greater than 75% throughout.
